The target of this assay is Cdk9/cyclinT1 (Homo sapiens (Human), UniProt P50750). The assay is described as follows: Cdk9/CyclinT1 IMAP Protocol (fluorescence polarization kinase assay). The assay is classed as biochemical. The conditions noted are these: Table 2; generated using one of the two Cdk9/cyclinT1 assays (IMAP or Alpha Screen), not specified which; unit inferred. The method, boiled down: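 Reaction used 4 nM Cdk9/cyclinT1, 100 nM 5TAMRA-cdk7tide peptide and 6 uM ATP in 100 mM Tris pH 7.2 with MgCl2, 0.01% Tween-20, 1 mM DTT and 2.5% DMSO, running 4.5 h. Phosphopeptide was captured by IMAP binding reagent for >1 h, then read by fluorescence polarization (ex 531/em 595 nm).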
Sequence of Cdk9/cyclinT1 (P50750 whole entry): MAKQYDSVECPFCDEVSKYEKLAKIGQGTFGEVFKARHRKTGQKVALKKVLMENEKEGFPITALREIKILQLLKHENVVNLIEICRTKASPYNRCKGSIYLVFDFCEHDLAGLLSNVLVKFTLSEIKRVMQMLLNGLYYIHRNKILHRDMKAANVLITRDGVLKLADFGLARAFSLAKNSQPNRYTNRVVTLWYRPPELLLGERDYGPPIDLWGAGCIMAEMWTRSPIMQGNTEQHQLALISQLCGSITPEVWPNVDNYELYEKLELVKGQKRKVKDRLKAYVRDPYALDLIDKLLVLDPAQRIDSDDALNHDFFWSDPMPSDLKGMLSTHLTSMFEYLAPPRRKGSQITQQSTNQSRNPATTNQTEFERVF
Sequence of Cdk9/cyclinT1 (O60563 whole entry partner): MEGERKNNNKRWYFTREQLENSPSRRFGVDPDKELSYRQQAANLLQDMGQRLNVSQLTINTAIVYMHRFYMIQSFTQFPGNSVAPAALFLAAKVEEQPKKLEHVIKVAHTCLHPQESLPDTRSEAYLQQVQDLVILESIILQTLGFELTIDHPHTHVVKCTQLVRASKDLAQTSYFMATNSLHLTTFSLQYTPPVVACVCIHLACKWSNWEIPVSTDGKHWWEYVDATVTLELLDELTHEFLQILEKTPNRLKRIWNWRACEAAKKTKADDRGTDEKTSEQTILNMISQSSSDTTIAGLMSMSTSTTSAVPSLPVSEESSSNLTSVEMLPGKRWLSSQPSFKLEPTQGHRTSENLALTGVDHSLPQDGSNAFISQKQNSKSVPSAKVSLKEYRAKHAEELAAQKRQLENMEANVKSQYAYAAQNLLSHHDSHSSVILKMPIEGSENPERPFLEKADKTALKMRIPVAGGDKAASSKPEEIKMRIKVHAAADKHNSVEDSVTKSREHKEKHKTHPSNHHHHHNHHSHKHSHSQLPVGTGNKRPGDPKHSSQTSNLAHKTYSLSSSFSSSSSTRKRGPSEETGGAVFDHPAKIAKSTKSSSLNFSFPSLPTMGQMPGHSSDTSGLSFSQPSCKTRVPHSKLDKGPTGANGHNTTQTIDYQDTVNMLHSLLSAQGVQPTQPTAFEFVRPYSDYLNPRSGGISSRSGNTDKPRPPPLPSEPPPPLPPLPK
Compound `O[C@@H](CN[C@H]1CC[C@H](Nc2cc(-c3nc(NCC4CCOCC4)ccc3Cl)c(Cl)cn2)CC1)C(F)(F)F` [Compound 290] showed an IC50 of 2 nM.
The same measure for `COCCN[C@H]1CC[C@H](Nc2cc(-c3nc(NCC4CCOCC4)ccc3Br)c(Cl)cn2)CC1` [Compound 292, 3-bromo-5′-chloro-N2′-(trans-4-(2-methoxyethylamino)cyclohexyl)-N6-((tetrahydro-2H-pyran-4-yl)methyl)-2,4′-bipyridine-2′,6-diamine]: 2 nM.
As for `COC[C@@H](C)N[C@H]1CC[C@H](Nc2cc(-c3nc(NCC4CCOCC4)ccc3F)c(Cl)cn2)CC1` [Compound 293], the figure is 1 nM; as for `COC[C@@H](C)N[C@H]1CC[C@H](Nc2cc(-c3ccc(F)c(NCC4CCOCC4)n3)c(Cl)cn2)CC1` [Compound 294], 1 nM; as for `CC1(C)CC(CNc2ccc(Cl)c(-c3cc(N[C@H]4CC[C@H](O)CC4)ncc3Cl)n2)CCO1` (stereo partly drawn) [Compound 297, trans-4-(3,5′-dichloro-6-((2,2-dimethyltetrahydro-2H-pyran-4-yl)methyl)amino-2,4′-bipyridin-2′-yl-amino)cyclohexanol], 1 nM.
As for `CC1(C)CC(CNc2ccc(Cl)c(-c3cc(N[C@H]4CC[C@H](NC[C@H](O)C(F)(F)F)CC4)ncc3Cl)n2)CCO1` (stereo partly drawn) [Compound 298, (2S)-3-(trans-4-(3,5′-dichloro-6-((2,2-dimethyltetrahydro-2H-pyran-4-yl)methyl)amino-2,4′-bipyridin-2′-yl-amino)cyclohexylamino)-1,1,1-trifluoropropan-2-ol], the figure is 1 nM.
Regarding `CC1(C)CC(CNc2ccc(Cl)c(-c3cc(N[C@H]4CC[C@H](NC[C@@H](O)C(F)(F)F)CC4)ncc3Cl)n2)CCO1` (stereo partly drawn) [Compound 299], the IC50 was 1 nM.
The same measure for `Clc1cnc(NC[C@@H]2CCCNC2)cc1-c1cccc(NCC2CCOCC2)n1` [Compound 300]: 219 nM.
As for `FC(F)(F)OCCN[C@H]1CC[C@H](Nc2cc(-c3cccc(NCC4CCOCC4)n3)c(Cl)cn2)CC1` [Compound 301, 5′-chloro-N6-((tetrahydro-2H-pyran-4-yl)methyl)-N2′-(trans-4-(2-(trifluoromethoxy)ethylamino)cyclohexyl)-2,4′-bipyridine-2′,6-diamine], the figure is 3 nM; as for `Clc1cnc(NC[C@H]2CCCN2)cc1-c1cccc(NCC2CCOCC2)n1` [Compound 303], 1300 nM.
As for `Clc1cnc(NC[C@@H]2CCCN2)cc1-c1cccc(NCC2CCOCC2)n1` [Compound 304], the figure is 6190 nM.
`COC[C@@H](C)N[C@H]1CC[C@H](Nc2cc(-c3cccc(NCC4(OC)CCOCC4)n3)c(Cl)cn2)CC1` [Compound 305] returned an IC50 of 1 nM.
`COC[C@@H](C)N[C@H]1CC[C@H](Nc2cc(-c3cccc(NCC4(OC)CCCCC4)n3)c(Cl)cn2)CC1` [Compound 306] displayed an IC50 of 9 nM.
Regarding `COC[C@@H](C)N[C@H]1CC[C@H](Nc2cc(-c3cccc(NCC4COC(C)(C)CO4)n3)c(Cl)cn2)CC1` (stereo partly drawn) [Compound 307, 5′-chloro-N6-((5,5-dimethyl-1,4-dioxan-2-yl)methyl)-N2′-(trans-4-((R)-1-methoxypropan-2-yl-amino)cyclohexyl)-2,4′-bipyridine-2′,6-diamine], the IC50 was determined as 8 nM.
The compound `COC[C@@H](C)N[C@H]1CC[C@H](Nc2cc(-c3ccc(C(F)(F)F)c(NCC4CCOCC4)n3)c(Cl)cn2)CC1` [Compound 308] registered a half-maximal inhibitory concentration (IC50) of 1 nM.
The same measure for `COC[C@@H](C)N[C@H]1CC[C@H](Nc2cc(-c3nc(NCC4CCOCC4)ccc3C(F)(F)F)c(Cl)cn2)CC1` [Compound 309]: 35 nM.
As for `COC[C@@H](C)N[C@H]1CC[C@H](Nc2cc(-c3cccc(NCC4(C#N)CCOCC4)n3)c(Cl)cn2)CC1` [Compound 310, 4-((5′-chloro-2′-(trans-4-((R)-1-methoxypropan-2-yl-amino)cyclohexylamino)-2,4′-bipyridin-6-ylamino)methyl)tetrahydro-2H-pyran-4-carbonitrile], the figure is 0.3 nM; as for `CC1(CNc2cccc(-c3cc(N[C@H]4CC[C@H](N)CC4)ncc3Cl)n2)CCOCC1` [Compound 311, N2′-(trans-4-aminocyclohexyl)-5′-chloro-N6-((4-methyltetrahydro-2H-pyran-4-yl)methyl)-2,4′-bipyridine-2′,6-diamine], 1 nM.
The same measure for `CC1(CNc2nc(-c3cc(N[C@H]4CC[C@H](N)CC4)ncc3Cl)ccc2F)CCOCC1` [Compound 312, N2′-(trans-4-aminocyclohexyl)-5′-chloro-5-fluoro-N6-((4-methyltetrahydro-2H-pyran-4-yl)methyl)-2,4′-bipyridine-2′,6-diamine]: 0.3 nM; for `N[C@H]1CC[C@H](Nc2cc(-c3cccc(NCC4(F)CCOCC4)n3)c(Cl)cn2)CC1` [Compound 313, N2′-(trans-4-aminocyclohexyl)-5′-chloro-N6-((4-fluorotetrahydro-2H-pyran-4-yl)methyl)-2,4′-bipyridine-2′,6-diamine]: 1 nM.
As for `COCCN[C@H]1CC[C@H](Nc2cc(-c3ccc(F)c(NCC4CCOCC4)n3)c(Cl)cn2)CC1` [Compound 314], the 50% inhibitory concentration (IC50) is 1 nM.
As for `[2H]C([2H])(Nc1cccc(-c2cc(N[C@H]3CC[C@H](NC[C@@H]4CCCO4)CC3)ncc2Cl)n1)C1CCOCC1` [Compound 317, 5′-chloro-N6-(dideutero-(tetrahydro-2H-pyran-4-yl)methyl)-N2′-(trans-4-(((S)-tetrahydrofuran-2-yl)methyl)aminocyclohexyl)-2,4′-bipyridine-2′,6-diamine], the figure is 99 nM; as for `N[C@H]1CC[C@H](Nc2cc(-c3nc(NCC4CCOCC4)c(F)cc3F)c(Cl)cn2)CC1` [Compound 318], 0.26 nM; as for `CC(CS(C)(=O)=O)N[C@H]1CC[C@H](Nc2cc(-c3ccc(F)c(NCC4CCOCC4)n3)c(Cl)cn2)CC1` (stereo partly drawn) [Compound 319], 4 nM.
Turning to `CC1(C)OC[C@@H](CN[C@H]2CC[C@H](Nc3cc(-c4nc(NCC5CCOCC5)ccc4Cl)c(Cl)cn3)CC2)O1` [Compound 320, 3,5′-dichloro-N2′-(trans-4-(((R)-2,2-dimethyl-1,3-dioxolan-4-yl)methyl)aminocyclohexyl)-N6-((tetrahydro-2H-pyran-4-yl)methyl)-2,4′-bipyridine-2′,6-diamine], the IC50 was 1 nM.
As for `O=S1(=O)CCC(N[C@H]2CC[C@H](Nc3cc(-c4ccc(F)c(NCC5CCOCC5)n4)c(Cl)cn3)CC2)C1` (stereo partly drawn) [Compound 322], the figure is 3 nM; as for `COC[C@@H](C)N[C@H]1CC[C@H](Nc2cc(-c3nc(NC[C@@H]4CCCOC4)ccc3Cl)c(Cl)cn2)CC1` [Compound 323, 3,5′-dichloro-N2′-(trans-4-((R)-1-methoxypropan-2-yl-amino)cyclohexyl)-N6-(((S)-tetrahydro-2H-pyran-3-yl)methyl)-2,4′-bipyridine-2′,6-diamine], 1 nM.
As for `Fc1ccc(-c2cc(N[C@H]3CC[C@H](NCC4CCO4)CC3)ncc2Cl)nc1NCC1CCOCC1` (stereo partly drawn) [Compound 324, 5′-chloro-5-fluoro-N2′-(trans-4-(oxetan-2-yl-methylamino)cyclohexyl)-N6-((tetrahydro-2H-pyran-4-yl)methyl)-2,4′-bipyridine-2′,6-diamine], the figure is 2 nM; as for `CS(=O)(=O)CCN[C@H]1CC[C@H](Nc2cc(-c3ccc(F)c(NCC4CCOCC4)n3)c(Cl)cn2)CC1` [Compound 326], 0.49 nM.
The same measure for `COC[C@@H](C)N[C@H]1CC[C@H](Nc2cc(-c3nc(NC[C@H]4CCCOC4)ccc3Cl)c(Cl)cn2)CC1` [Compound 327, 3,5′-dichloro-N2′-(trans-4-((R)-1-methoxypropan-2-yl-amino)cyclohexyl)-N6-(((R)-tetrahydro-2H-pyran-3-yl)methyl)-2,4′-bipyridine-2′,6-diamine]: 1 nM.
The compound `O=S1(=O)CCC(CN[C@H]2CC[C@H](Nc3cc(-c4ccc(F)c(NCC5CCOCC5)n4)c(Cl)cn3)CC2)CC1` [Compound 331] returned an IC50 of 1 nM.
`CC1(CN[C@H]2CC[C@H](Nc3cc(-c4ccc(F)c(NCC5CCOCC5)n4)c(Cl)cn3)CC2)OCCO1` [Compound 333, 5′-chloro-5-fluoro-N2′-(trans-4-((2-methyl-1,3-dioxolan-2-yl)methyl)aminocyclohexyl)-N6-((tetrahydro-2H-pyran-4-yl)methyl)-2,4′-bipyridine-2′,6-diamine] showed a half-maximal inhibitory concentration (IC50) of 4 nM.
The same measure for `COCCN[C@H]1CC[C@H](Nc2cc(-c3ccc(F)c(NCC4(C#N)CCOCC4)n3)c(Cl)cn2)CC1` [Compound 339]: 0.17 nM.
The same measure for `COC[C@@H](C)N[C@H]1CC[C@H](Nc2cc(-c3ccc(F)c(NCC4(C#N)CCOCC4)n3)c(Cl)cn2)CC1` [Compound 340, 4-((5′-chloro-5-fluoro-2′-(trans-4-((R)-1-methoxypropan-2-yl-amino)cyclohexylamino)-2,4′-bipyridin-6-ylamino)methyl)tetrahydro-2H-pyran-4-carbonitrile]: 0.23 nM; for `N#CC1(CNc2nc(-c3cc(N[C@H]4CC[C@H](N)CC4)ncc3Cl)ccc2F)CCOCC1` [Compound 341]: 0.15 nM; for `CCCN(CCC)[C@H]1CC[C@H](Nc2cc(-c3ccc(F)c(NCC4(C#N)CCOCC4)n3)c(Cl)cn2)CC1` [Compound 343]: 0.31 nM.
As for `CC1(CNc2nc(-c3cc(N[C@H]4CC[C@H](NC5CCS(=O)(=O)CC5)CC4)ncc3Cl)ccc2F)CCOCC1` [Compound 346], the figure is 1 nM; as for `CC1(CNc2nc(-c3cc(NC4CCC(NC5CS(=O)(=O)C5)CC4)ncc3Cl)ccc2F)CCOCC1` (stereo not drawn) [Compound 347], 1 nM; as for `O=S1(=O)CCC(N[C@H]2CC[C@H](Nc3cc(-c4nc(NCC5CCOCC5)ccc4Cl)c(Cl)cn3)CC2)CC1` [Compound 348, 3,5′-dichloro-N6-((tetrahydro-2H-pyran-4-yl)methyl)-N2′-(trans-4-(1,1-dioxo-tetrahydro-2H-thiopyran-4-ylamino)cyclohexyl)-2,4′-bipyridine-2′,6-diamine], 2 nM.

The record behind these values is patent US8778951B2, “Heteroaryl compounds and their uses” (Novartis AG, priority 2009, dated 2014).
